# Reference: patent publication US10221129B2, “Inhibitors of human immunodeficiency virus replication” (ViiV HEALTHCARE UK (NO.5) LIMITED, priority 2015, dated 2019)
# Like-named read-outs stand apart in the source and are kept apart here.
# Assays:
# Assay type in all cases: cell-based
# [1] = test system: recombinant NL4-3 virus (nef section replaced with Renilla luciferase gene) in MT-2 cells; assay: HIV cell culture assay (antiviral activity, luciferase readout)
# Method in brief: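 Serial compound dilutions tested in MT-2 cells infected for 4-5 days with 293T-derived NL4-3 virus carrying Renilla luciferase in place of part of nef. Antiviral activity quantified as luciferase activity, read with a live-cell substrate.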
# [2] = test system: uninfected MT2 cells; assay: Compound cytotoxicity, XTT-based colorimetric assay; conditions: day 4, XTT
# Method in brief: (§1)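 Run under the antiviral-assay protocol but without virus. Viability was read on day 4 and CC50 values were derived from the readout.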
# [3] = as above; conditions: human, uninfected MT2 cells, day 4, XTT
# Method in brief: as §1
# [4] = MT-2 cells infected for 4-5 days with recombinant NL4-3 Renilla luciferase virus
# [5] = Renilla, NL43, MT-2 cells infected for 4-5 days with recombinant NL4-3 Renilla luciferase virus
# [6] = MT-2 cells infected for 4-5 days with recombinant NL4-3 Renilla luciferase virus, read-out: EC50
Structure (SMILES),"EC50 [1, 4] [nM]",CC50 [2] [nM],"EC50 [1, 5] [nM]","EC50 [1, 6] [nM]",CC50 at 4 days [3] [nM]
"CN(C)C(=O)C1Cc2cccnc2N1S(=O)(=O)NC(=O)N[C@@H](Cc1cc(F)cc(F)c1)C(=O)N(C)c1ccc2scnc2c1 (single isomer, unassigned) [BB-29]",2430,> 100000,,,
"CN(C(=O)[C@H](Cc1cc(F)cc(F)c1)NC(=O)NS(=O)(=O)N1CCCC1c1ccccn1)c1ccc2scnc2c1 (single isomer, unassigned) [VN-2]",610,> 100000,,,
"CN(C(=O)[C@H](Cc1cc(F)cc(F)c1)NC(=O)NS(=O)(=O)N1CCCC1c1ccccc1)c1ccc2scnc2c1 (single isomer, unassigned) [VN-4]",190,57500,,,
"CC1Cc2cccnc2N1S(=O)(=O)NC(=O)N[C@@H](Cc1cc(F)cc(F)c1)C(=O)N(C)c1ccc2scnc2c1 (single isomer, unassigned) [VN-7]",50,> 1000,,,
"CC1CCc2ccccc2N1S(=O)(=O)NC(=O)N[C@@H](Cc1cc(F)cc(F)c1)C(=O)N(C)c1ccc2scnc2c1 (single isomer, unassigned) [VN-10]",,> 33300,100,,
"CC1CCc2ccccc2N1S(=O)(=O)NC(=O)N[C@@H](Cc1cc(F)cc(F)c1)C(=O)N(C)c1ccc2scnc2c1 (single isomer, unassigned) [VN-11]",90,93500,,,
"CC1CN(S(=O)(=O)NC(=O)N[C@@H](Cc2cc(F)cc(F)c2)C(=O)N(C)c2ccc3scnc3c2)c2ncccc21 (single isomer, unassigned) [VN-15]",,> 100000,30,,
COc1ccc(N(C)C(=O)[C@H](Cc2ccccc2)NC(=O)NS(=O)(=O)NCc2n[nH]c3ccccc23)cc1 [JB-66],,> 100000,,1180,
CN(C(=O)[C@H](Cc1cc(F)cc(F)c1)NC(=O)NS(=O)(=O)N1CCc2cncnc21)c1ccc2scnc2c1 [VN-19],,70500,,680,
CN(C(=O)[C@H](Cc1cc(F)cc(F)c1)NC(=O)NS(=O)(=O)n1ccc2cncnc21)c1ccc2scnc2c1 [VN-20],,> 100000,,940,
CN(C(=O)[C@H](Cc1cc(F)cc(F)c1)NC(=O)NS(=O)(=O)N1CCc2cccnc21)c1ccc2scnc2c1 [ZY-1],,,10,,> 100000
CN(C(=O)[C@H](Cc1ccccc1)NC(=O)NS(=O)(=O)N1CCc2cccnc21)c1ccc2scnc2c1 [ZY-2],,,50,,> 53000
CN(C(=O)[C@H](Cc1cc(F)cc(F)c1)NC(=O)NS(=O)(=O)N1CCc2ccccc21)c1ccc2scnc2c1 [ZY-8],,,20,,88000
CCN(c1ccccc1)S(=O)(=O)NC(=O)N[C@@H](Cc1cc(F)cc(F)c1)C(=O)N(C)c1ccc2scnc2c1 [ZY-9],,,180,,> 100000
Cc1ccc(NS(=O)(=O)NC(=O)N[C@@H](Cc2cc(F)cc(F)c2)C(=O)N(C)c2ccc3scnc3c2)cc1 [ZY-10],,,50,,> 100000
CN(C(=O)[C@H](Cc1cc(F)cc(F)c1)NC(=O)NS(=O)(=O)Nc1ccc(C(C)(C)C)cc1)c1ccc2scnc2c1 [ZY-11],,,80,,66900
CN(C(=O)[C@H](Cc1cc(F)cc(F)c1)NC(=O)NS(=O)(=O)N1CCc2cc(F)ccc21)c1ccc2scnc2c1 [ZY-12],,,110,,> 100000
CN(C(=O)[C@H](Cc1cc(F)cc(F)c1)NC(=O)NS(=O)(=O)N1CCc2cccc(F)c21)c1ccc2scnc2c1 [ZY-15],,,30,,> 33300
CN(C(=O)[C@H](Cc1cc(F)cc(F)c1)NC(=O)NS(=O)(=O)n1ccc2nccnc21)c1ccc2scnc2c1 [ZY-18],,,150,,> 100000
CN(C(=O)[C@H](Cc1cc(F)cc(F)c1)NC(=O)NS(=O)(=O)n1ncc2c(Cl)cccc21)c1ccc2scnc2c1 [ZY-19],,,360,,> 33300
CN(C(=O)[C@H](Cc1cc(F)cc(F)c1)NC(=O)NS(=O)(=O)n1ncc2cc(F)ccc21)c1ccc2scnc2c1 [ZY-20],,,4190,,> 100000
CN(C(=O)[C@H](Cc1cc(F)cc(F)c1)NC(=O)NS(=O)(=O)N1CCc2cc(Br)cnc21)c1ccc2scnc2c1 [ZY-21],,,490,,> 100000
CN(C(=O)[C@H](Cc1cc(F)cc(F)c1)NC(=O)NS(=O)(=O)N1CCc2nccnc21)c1ccc2scnc2c1 [ZY-22],,,520,,> 100000
Cc1nc2cc(N(C)C(=O)[C@H](Cc3cc(F)cc(F)c3)NC(=O)NS(=O)(=O)N3CCc4cccnc43)ccc2s1 [ZY-23],,,80,,> 100000
CN(C(=O)[C@H](Cc1cc(F)cc(F)c1)NC(=O)NS(=O)(=O)N1CCc2cccnc21)c1ccc2c(c1)OCCO2 [ZY-24],,,60,,53400
CN(C(=O)[C@H](Cc1cc(F)cc(F)c1)NC(=O)NS(=O)(=O)N1CCc2cccnc21)c1ccc(Cl)cc1 [ZY-25],,,30,,97100
